The results in this text go back to the OligoGym collection.

HELM strings list units from the 5' end as sugar, base in round brackets, then linkage (d deoxyribose, r ribose, m 2'-O-methyl, p phosphodiester). Strings are as the collection lists them; they lack the last nucleoside at the 3' end of the tested compound. [moe] = 2'-O-(2-methoxyethyl) (MOE); [sp] = phosphorothioate linkage; [m5C] = 5-methylcytosine

The series addresses APP. Briefly: mouse, dose not given. Particulars: ASO.

“RNA1{[moe]([m5C])[sp].[moe](A)p.[moe](T)p.[moe](G)p.[moe](A)[sp].d(G)[sp].d(T)[sp].d([m5C])[sp].d([m5C])[sp].d(A)[sp].d(A)[sp].d(T)[sp].d(G)[sp].d(A)[sp].d(T)[sp].[moe](T)p.[moe](G)p.[moe]([m5C])[sp].[moe](A)}$$$$ (last 3' nucleoside missing)” gave a 3 h FOB score of 5.5 score 0-7.

Consider “RNA1{[moe]([m5C])[sp].[moe](A)p.[moe](T)p.[moe](G)p.[moe](G)[sp].d([m5C])[sp].d(T)[sp].d(T)[sp].d([m5C])[sp].d([m5C])[sp].d(A)[sp].d([m5C])[sp].d(T)[sp].d([m5C])[sp].d(T)[sp].[moe](G)p.[moe](G)p.[moe]([m5C])[sp].[moe]([m5C])}$$$$ (last 3' nucleoside missing)”, for which the 3 h FOB score was determined as 1 score 0-7.

As to “RNA1{[moe]([m5C])[sp].[moe](A)p.[moe](T)p.[moe](G)p.[moe]([m5C])[sp].d(G)[sp].d([m5C])[sp].d(T)[sp].d([m5C])[sp].d(A)[sp].d(T)[sp].d(A)[sp].d(A)[sp].d(A)[sp].d(T)[sp].[moe]([m5C])p.[moe](A)p.[moe]([m5C])[sp].[moe](A)}$$$$ (last 3' nucleoside missing)”, the 3 h FOB score worked out at 3.5 score 0-7.

As to “RNA1{[moe]([m5C])[sp].[moe](A)p.[moe](T)p.[moe](T)p.[moe]([m5C])[sp].d(T)[sp].d([m5C])[sp].d(T)[sp].d(T)[sp].d(A)[sp].d(T)[sp].d(A)[sp].d(T)[sp].d(T)[sp].d([m5C])[sp].[moe]([m5C])p.[moe](T)p.[moe](T)[sp].[moe](A)}$$$$ (last 3' nucleoside missing)”, the 3 h FOB score was 0 score 0-7.

With “RNA1{[moe]([m5C])[sp].[moe](A)p.[moe](T)p.[moe]([m5C])p.[moe](A)[sp].d([m5C])[sp].d(T)[sp].d(T)[sp].d(A)[sp].d([m5C])[sp].d(A)[sp].d(A)[sp].d(A)[sp].d([m5C])[sp].d(T)[sp].[moe]([m5C])p.[moe](A)p.[moe]([m5C])[sp].[moe]([m5C])}$$$$ (last 3' nucleoside missing)”, the 3 h FOB score turned out to be 0.5 score 0-7.

“RNA1{[moe]([m5C])[sp].[moe](A)p.[moe]([m5C])p.[moe]([m5C])p.[moe](A)[sp].d(T)[sp].d([m5C])[sp].d(T)[sp].d(A)[sp].d(T)[sp].d(A)[sp].d(A)[sp].d(T)[sp].d(A)[sp].d([m5C])[sp].[moe]([m5C])p.[moe](A)p.[moe](T)[sp].[moe]([m5C])}$$$$ (last 3' nucleoside missing)” displayed a 3 h FOB score of 0 score 0-7.

On to “RNA1{[moe]([m5C])[sp].[moe](A)p.[moe]([m5C])p.[moe]([m5C])p.[moe](T)[sp].d([m5C])[sp].d(A)[sp].d(G)[sp].d([m5C])[sp].d([m5C])[sp].d(A)[sp].d([m5C])[sp].d(T)[sp].d(T)[sp].d([m5C])[sp].[moe](T)p.[moe](T)p.[moe]([m5C])[sp].[moe]([m5C])}$$$$ (last 3' nucleoside missing)”, for which the 3 h FOB score was 0.5 score 0-7.

Regarding “RNA1{[moe]([m5C])[sp].[moe](G)p.[moe](A)p.[moe](G)p.[moe](A)[sp].d(T)[sp].d(A)[sp].d([m5C])[sp].d(T)[sp].d(T)[sp].d(G)[sp].d(T)[sp].d([m5C])[sp].d(A)[sp].d(A)[sp].[moe]([m5C])p.[moe](G)p.[moe](G)[sp].[moe]([m5C])}$$$$ (last 3' nucleoside missing)”, the 3 h FOB score was determined as 2.33 score 0-7.

The substance “RNA1{[moe]([m5C])[sp].[moe](G)p.[moe](G)p.[moe](A)p.[moe]([m5C])[sp].d(T)[sp].d(T)[sp].d(T)[sp].d(T)[sp].d(T)[sp].d(T)[sp].d([m5C])[sp].d(T)[sp].d(T)[sp].d([m5C])[sp].[moe](T)p.[moe](T)p.[moe](G)[sp].[moe]([m5C])}$$$$ (last 3' nucleoside missing)” had a 3 h FOB score of 0 score 0-7.

Turning to “RNA1{[moe]([m5C])[sp].[moe](G)p.[moe](G)p.[moe]([m5C])p.[moe](A)[sp].d(G)[sp].d(T)[sp].d(T)[sp].d(T)[sp].d(A)[sp].d(A)[sp].d(A)[sp].d(A)[sp].d(T)[sp].d(T)[sp].[moe]([m5C])p.[moe](T)p.[moe]([m5C])[sp].[moe](T)}$$$$ (last 3' nucleoside missing)”, the 3 h FOB score came to 0 score 0-7.

Take “RNA1{[moe]([m5C])[sp].[moe](G)p.[moe](T)p.[moe](G)p.[moe](T)[sp].d(G)[sp].d(T)[sp].d(A)[sp].d(T)[sp].d([m5C])[sp].d([m5C])[sp].d(T)[sp].d([m5C])[sp].d(T)[sp].d(T)[sp].[moe](A)p.[moe](A)p.[moe](T)[sp].[moe](T)}$$$$ (last 3' nucleoside missing)”: the 3 h FOB score came to 1 score 0-7.

“RNA1{[moe]([m5C])[sp].[moe](T)[sp].[moe](T)p.[moe]([m5C])p.[moe]([m5C])[sp].d([m5C])[sp].d(A)[sp].d(T)[sp].d(T)[sp].d([m5C])[sp].d(T)[sp].d([m5C])[sp].d(T)[sp].d([m5C])[sp].d(A)[sp].[moe](T)p.[moe](G)p.[moe](A)[sp].[moe]([m5C])}$$$$ (last 3' nucleoside missing)” had a 3 h FOB score of 1 score 0-7.

“RNA1{[moe]([m5C])[sp].[moe](T)p.[moe](A)p.[moe]([m5C])p.[moe]([m5C])[sp].d([m5C])[sp].d([m5C])[sp].d(T)[sp].d([m5C])[sp].d(G)[sp].d(G)[sp].d(A)[sp].d(A)[sp].d([m5C])[sp].d(T)[sp].[moe](T)p.[moe](G)p.[moe](T)[sp].[moe]([m5C])}$$$$ (last 3' nucleoside missing)”: the 3 h FOB score was 0.75 score 0-7.

In the case of “RNA1{[moe]([m5C])[sp].[moe](T)p.[moe](G)p.[moe](G)p.[moe](G)[sp].d(T)[sp].d(A)[sp].d([m5C])[sp].d(A)[sp].d(T)[sp].d(A)[sp].d(A)[sp].d(T)[sp].d(A)[sp].d([m5C])[sp].[moe](T)p.[moe](A)p.[moe](G)[sp].[moe](G)}$$$$ (last 3' nucleoside missing)”, the 3 h FOB score turned out to be 0 score 0-7.

Consider “RNA1{[moe]([m5C])[sp].[moe](T)p.[moe](T)p.[moe](A)p.[moe]([m5C])[sp].d(A)[sp].d(A)[sp].d(A)[sp].d([m5C])[sp].d(T)[sp].d([m5C])[sp].d(A)[sp].d([m5C])[sp].d([m5C])[sp].d(A)[sp].[moe](A)p.[moe]([m5C])p.[moe](T)[sp].[moe](A)}$$$$ (last 3' nucleoside missing)”, for which the 3 h FOB score is 0 score 0-7.

“RNA1{[moe]([m5C])[sp].[moe](T)p.[moe](T)p.[moe](A)p.[moe]([m5C])[sp].d(A)[sp].d(T)[sp].d([m5C])[sp].d(A)[sp].d(T)[sp].d(T)[sp].d(T)[sp].d(T)[sp].d([m5C])[sp].d(T)[sp].[moe](T)p.[moe](G)p.[moe]([m5C])[sp].[moe](A)}$$$$ (last 3' nucleoside missing)” registered a 3 h FOB score of 1 score 0-7.

On to “RNA1{[moe]([m5C])[sp].[moe](T)p.[moe](T)p.[moe](T)p.[moe](T)[sp].d(G)[sp].d(T)[sp].d(A)[sp].d(T)[sp].d([m5C])[sp].d(A)[sp].d(T)[sp].d(A)[sp].d(A)[sp].d(A)[sp].[moe](T)p.[moe](G)p.[moe](A)[sp].[moe](A)}$$$$ (last 3' nucleoside missing)”, for which the 3 h FOB score stood at 0.5 score 0-7.

“RNA1{[moe]([m5C])[sp].[moe](T)p.[moe](T)p.[moe](T)p.[moe]([m5C])[sp].d(T)[sp].d(A)[sp].d(T)[sp].d(T)[sp].d(T)[sp].d(A)[sp].d([m5C])[sp].d(T)[sp].d([m5C])[sp].d(A)[sp].[moe]([m5C])p.[moe](A)p.[moe](G)[sp].[moe]([m5C])}$$$$ (last 3' nucleoside missing)” yielded a 3 h FOB score of 0 score 0-7.

In turn, “RNA1{[moe]([m5C])[sp].[moe](T)p.[moe](T)p.[moe]([m5C])p.[moe](T)[sp].d(G)[sp].d([m5C])[sp].d(A)[sp].d(A)[sp].d(A)[sp].d(G)[sp].d(A)[sp].d(A)[sp].d([m5C])[sp].d(A)[sp].[moe]([m5C])p.[moe]([m5C])p.[moe](A)[sp].[moe](A)}$$$$ (last 3' nucleoside missing)” registered a 3 h FOB score of 0.5 score 0-7.

The substance “RNA1{[moe]([m5C])[sp].[moe](T)p.[moe](T)p.[moe]([m5C])p.[moe](T)[sp].d(T)[sp].d(A)[sp].d(T)[sp].d([m5C])[sp].d(A)[sp].d(G)[sp].d([m5C])[sp].d(T)[sp].d(T)[sp].d(T)[sp].[moe](A)p.[moe](G)p.[moe](G)[sp].[moe]([m5C])}$$$$ (last 3' nucleoside missing)” yielded a 3 h FOB score of 1 score 0-7.

In turn, “RNA1{[moe]([m5C])[sp].[moe](T)p.[moe](T)p.[moe]([m5C])p.[moe]([m5C])[sp].d([m5C])[sp].d(A)[sp].d(T)[sp].d(T)[sp].d([m5C])[sp].d(T)[sp].d([m5C])[sp].d(T)[sp].d([m5C])[sp].d(A)[sp].[moe](T)p.[moe](G)p.[moe](A)[sp].[moe]([m5C])}$$$$ (last 3' nucleoside missing)” displayed a 3 h FOB score of 0.25 score 0-7.

“RNA1{[moe]([m5C])[sp].[moe](T)p.[moe](T)p.[moe]([m5C])p.[moe]([m5C])p.[moe]([m5C])p.d(A)[sp].d(T)[sp].d(T)[sp].d([m5C])[sp].d(T)[sp].d([m5C])[sp].d(T)[sp].d([m5C])[sp].d(A)[sp].d(T)[sp].[moe](G)p.[moe](A)[sp].[moe]([m5C])}$$$$ (last 3' nucleoside missing)” showed a 3 h FOB score of 0 score 0-7.

In turn, “RNA1{[moe]([m5C])[sp].[moe](T)p.[moe]([m5C])p.[moe](T)p.[moe](T)[sp].d(G)[sp].d(T)[sp].d(T)[sp].d(A)[sp].d(A)[sp].d(A)[sp].d(T)[sp].d([m5C])[sp].d(A)[sp].d(T)[sp].[moe](G)p.[moe](G)p.[moe]([m5C])[sp].[moe](A)}$$$$ (last 3' nucleoside missing)” returned a 3 h FOB score of 0 score 0-7.

“RNA1{[moe]([m5C])[sp].[moe](T)p.[moe]([m5C])p.[moe](T)p.[moe]([m5C])[sp].d(A)[sp].d(T)[sp].d(A)[sp].d(G)[sp].d(T)[sp].d([m5C])[sp].d(T)[sp].d(T)[sp].d(A)[sp].d(A)[sp].[moe](T)p.[moe](T)p.[moe]([m5C])[sp].[moe]([m5C])}$$$$ (last 3' nucleoside missing)” had a 3 h FOB score of 0.25 score 0-7.
